Patent US20180092908A1, “SMALL MOLECULE OXIDIZERS OF PDI AND THEIR USE” (THE TRUSTEES OF COLUMBIA UNIVERSITY IN THE CITY OF NEW YORK, priority 2015, published 2018)
pEC50, pKd: −log10 of the molar value. Values after ≈ are worked out from the molar mass of the structure shown. Like-named read-outs stand apart in the source and are kept apart here.

Key:
[1] = biological target: T1, recombinant catalytic a domain of human PDI A1 (PDIa) (Homo sapiens, UniProt P07237); assay: Insulin aggregation assay (PDIa reductase activity); type: biochemical; conditions: Table 5
T1 construct: made in house; host or cells: Escherichia coli BL21-Gold (DE3)
T1 sequence (P07237 with tags, fused parts or gaps): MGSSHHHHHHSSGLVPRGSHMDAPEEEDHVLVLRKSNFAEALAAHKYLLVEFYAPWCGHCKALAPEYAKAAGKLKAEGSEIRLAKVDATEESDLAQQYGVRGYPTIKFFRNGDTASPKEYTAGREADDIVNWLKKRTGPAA
From the text: In this insulin aggregation assay (Xu et al., 2012; Jasuja et al., 2012; Khan et al., 2011; Smith et al., 2004), PDIa reduced the two disulfide bonds between the α- and β-chains of insulin, causing the β-chain to aggregate and precipitate, resulting in an increase in absorbance at 650 nm.
To investigate the mode of binding further and to determine whether the binding was reversible or irreversible, the recovery of enzymatic activity of PDIa after dilution of pre-formed concentrated PDIa-LOC14 complexes was analyzed. LOC14 (750 μM) was incubated with a concentrated solution of PDIa (500 μM). The mixture was then diluted 100-fold and PDI's enzymatic activity was measured in the insulin reduction assay. As a control, the same procedure was also performed on the sample containing an irreversible inhibitor, 16F16 (16F16 at 750 μM and PDIa at 500 μM). […] This illustrated that unlike 16F16, LOC14 binding to PDIa is reversible.

[2] = biological target: T2, human catalytic PDI A1 a domain (PDIa) (Homo sapiens, UniProt P07237); assay: Isothermal titration calorimetry (ITC) binding to PDIa; conditions: PDIa
T2 construct: made in house; host or cells: Escherichia coli BL21-Gold (DE3)
T2 sequence (P07237 with tags, fused parts or gaps): as above
Experimental: All ITC experiments were carried out at 25° C. on MicoCal Auto-ITC200 system (GE Healthcare). Reduced PDIa was dialyzed into ITC buffer (20 mM sodium phosphate buffer pH 7.8) and loaded into a sample cell at 40 μM concentration. The compound solution was loaded into a syringe at 400 μM in the same ITC buffer with a final DMSO concentration at 0.4% (v/v). ITC titration experiments were carried out at 25° C. with 19 injections, 2 μl per injection, and 180 seconds between each injection. The reference cell power was set to 5 μcal/sec. A control experiment was performed for each compound, where each compound was titrated into buffer to account for heat released due to dilution. This background was subtracted from test data before a final dissociation constant was obtained. Data were analyzed using a one-site binding model in Origin 7.1 software. […] Gibbs free energy, ΔG, was calculated from equation ΔG=ΔH−TΔS. All other parameters, Ka, n, ΔH, ΔS, were determined directly from the titration data.
For ITC experiments with 16F16 pre-treatment, 40 μM PDIa (after dialysis into ITC buffer) was treated with 200 μM 16F16 for 12-15 hours at 4° C. Next day the whole solution was loaded into the sample cell. LOC14 at 400 μM in ITC buffer was loaded into syringe and titrated into PDIa+16F16 loaded cell. For control experiments, ITC buffer with 200 μM 16F16 was used in the cell, while 400 μM LOC14 in ITC buffer was used in the syringe.
The binding mode of LOC14 to PDIa was next investigated using isothermal titration calorimetry (ITC). ITC measures the heat released or absorbed during a biomolecular interaction. It is a direct analytical method for determining the binding and thermodynamic parameters, such as reaction stoichiometry (n), binding constants (Ka and Kd), enthalpy (ΔH), entropy (ΔS), and free energy (ΔG) of an interaction.

[3] = test system: PC12 mHTT^Q103 cells; assay: Rescue of PC12 cells from mHTT^Q103 induced cell death (Alamar blue viability); type: cell-based; conditions: Rattus norvegicus, PC-12; Table 5; read-out: Cell Viability Assay EC50
From the text: PC12 mHTT^Q103 cells were a gift from Erik S. Schweitzer (UCLA School of Medicine, Los Angeles, Calif.). These cells are stably transfected with the first exon of human HTT gene containing the pathogenic 103 CAG/CAA repeat expansion, under the control of the ecdysteroid promoter (Aiken et al., 2004). The plasmid also contains a Bombyx mori ecdysone receptor gene fused at N-terminal with VP16 transactivation domain (Suhr et al., 1998; Vilaboa et al., 2011). Addition of the ecdysone analog, tebufenozide, to the cell culture medium is used to initiate the transcription of mutant HTT (Aiken et al., 2004).
PC12 mHTT^Q103 cells were cultured in DMEM containing 4.5 g/I glucose, 25 mM HEPES, sodium pyruvate, and no L-glutamine (Mediatech, cat. no. 15-018-CV), supplemented with 10% (v/v) Cosmic Calf serum, 2 mM L-glutamine, 100 units/mL of penicillin-streptomycin, and 0.5 mg/ml active geneticin. Cells were grown at 37° C., 9.5% CO2, and the medium was replaced with fresh medium every 2-3 days. To induce mHTT^Q103 expression for experiments, tebufenozide, a gift from Lynne Moore and Fred H. Gage (The Salk Institute for Biological Studies, La Jolla, Calif.), was added to the medium at 200 nM final concentration from 1 mM stock in 85% ethanol.
LOC mother plates with compounds at 4 mg/ml were thawed and spun down (1000 rpm, 20° C., 1 min) prior to use. Biomek FX (Beckman Coulter) robotic liquid dispenser was used to handle all liquid transferring and mixing. […] Two fold serial dilution was performed across five daughter plates by transferring 50 μl of compounds (at […]) from the D1 plate into 50 μl of PC12 medium in daughter plate D2, mixing, and then repeating the process for the remaining three plates. Daughter plate D1 with compounds at […], daughter plate D3 with compounds at 20 μl/ml and daughter plate D5 with compounds at 5 μl/ml were then used for the screen. Assay plates were set up by seeding tebufenozide-induced PC12 mHTT^Q103 cells into 384-well black, clear-bottom plates (Corning Inc. cat. no. 3712) at a density of 7,500 cells per well in 57 μl PC12 medium without geneticin. Three microliters of compound from the daughter plates (D1, D3, and D5) were added to the assay plates for a final compound concentration of 4 μl/ml, 1 μl/ml, and 0.25 μl/ml. Four wells containing uninduced PC12 mHTT^Q103 cells and four wells containing medium only, were also included on each plate as controls. The assay plates were incubated at 37° C., 9.5% CO2 for 48 hours. Twenty microliters of 40% Alamar blue (Life Technologies cat. no. DAL1100) solution in PC12 medium was added to each well (1:10 final dilution) and the plates were incubated for an additional 12-24 hours at 37° C., 9.5% CO2. Alamar blue fluorescence was read on a fluorescence plate reader (PerkinElmer Victor3) with 530 nm excitation filter and 590 nm emission filter. Each compound concentration was tested in triplicate.
The follow-up testing of primary screen hits was performed in a similar way. Fresh powder stocks of primary hits were re-ordered from vendors, dissolved in DMSO and tested in a two-fold serial dilution across 10 wells in both tebufenozide-induced and uninduced PC12 mHTT^Q103 cells. Dose-response curves were plotted as mean±SD and fit to either four-parameter sigmoidal (for uninduced cells) or bell-shaped (induced) function using Prism (GraphPad Software).
A cascade of two assays was used, involving both a phenotypic high-throughput screening (HTS) assay and an in vitro PDI reductase assay, to identify neuroprotective PDI-inhibiting compounds. […] Alamar blue was used as a fluorescent readout for viability after 48 hours of compound treatment and mHTT^Q103 induction. […] All the candidate hit compounds were re-tested in a two-fold dilution series.

[4] = Solubility; conditions: DMSO, Table 5
[5] = physchem; conditions: organic solvent or mixture
[6] = Table 5, read-out: ITC Assay KD

SMILES | Insulin Assay (either active or inactive) [1] | pKd ([2]; Table 4, read-out: ITC KD) | pKd [2, 6] | pEC50 [3] | Solubility in DMSO [4] [mM in DMSO] | solubility ([5]; DMSO) [mM] | ITC KD ([2]; Table 4) | ITC Assay KD ([2]; Table 5) | solubility [5] [mM]
O=c1c2ccccc2sn1CN1CCCCC1 [LC-1] | Active | 6.97 | 6.97 | 6.34 | 100 | – | – | – | –
CN1CCN(Cn2sc3ccccc3c2=O)CC1 [LC-2] | Active | 6.87 | 7.04 | 6.38 | 100 | – | – | – | –
O=c1c2ccccc2sn1CN1CCSCC1 [LC-3] | Active | 7.04 | 7.04 | 6.33 | 100 | – | – | – | –
O=c1c2ccccc2sn1CN1CCC(CO)CC1 [LC-4] | Active | 6.58 | 6.58 | 6.47 | 100 | – | – | – | –
O=C(Nc1ccccc1)n1sc2ccccc2c1=O [LC-6, 3-oxo-N-phenylbenzo[d]isothiazole-2(3H)-carboxamide] | not active | – | – | 6.32 | – | 50 (≈ 13500 µg/mL) | KD = not active | KD = N/A irreversible or not active | –
O=c1c2ccccc2sn1CN1CCC(O)CC1 [LC-7] | Active | 6.67 | 6.67 | 6.36 | 100 | – | – | – | –
CC(C)(C)OC(=O)N1CCN(Cn2sc3ccccc3c2=O)CC1 [LC-10] | Active | 6.91 | 6.91 | 6.24 | 100 | – | – | – | –
O=c1c2ccccc2sn1CN1CCN(c2ncccn2)CC1 [LC-12] | Active | 6.85 | 6.85 | 6.38 | 100 | – | – | – | –
CC(=O)c1ccc(N2CCN(Cn3sc4ccccc4c3=O)CC2)cc1 [LC-13] | Active | 6.72 | 6.72 | 6.29 | 100 | – | – | – | –
O=C(C1CC1)N1CCN(C(=O)n2sc3ccccc3c2=O)CC1 [LC-14] | not active | – | – | < 4.30 | – | 30 (≈ 9940 µg/mL) | – | KD = N/A irreversible or not active | –
O=C(C1CC1)N1CCN(Cn2sc3ccc(Cl)cc3c2=O)CC1 [LC-15, 5-chloro-2-((4-(cyclopropanecarbonyl)piperazin-1-yl)methyl)benzo[d]isothiazol-3(2H)-one] | Active | 6.94 | 6.94 | 6.33 | – | 20 (≈ 7040 µg/mL) | – | – | –
CC(C)(C)OC(=O)N1CCC(COc2nsc3ccccc23)CC1 [LC-16] | not active | – | – | < 4.30 | – | 50 (≈ 17400 µg/mL) | – | KD = N/A irreversible or not active | –
O=c1c2ccccc2sn1Cn1sc2ccccc2c1=O [LC-17, 2,2′-methylenebis(benzo[d]isothiazol-3(2H)-one)] | Active | – | 6.80 | 6.64 | 100 | – | – | – | –
O=C(Nc1ccccc1)c1ccccc1S [LC-19] | not active | – | – | – | – | – | – | KD = N/A irreversible or not active | 50 (≈ 11500 µg/mL)
O=c1c2ccccc2sn1-c1ccc(N2CCOCC2)cc1 [LC-27] | not active | – | – | 5.74 | – | 30 (≈ 9370 µg/mL) | – | KD = N/A irreversible or not active | –
O=C(C1CC1)N1CCN(Cn2sc3c(F)cccc3c2=O)CC1 [LC-43] | Active | – | – | 5.13 | – | – | – | KD = N/A irreversible or not active | –
NC(=O)c1cccc(F)c1SSc1c(F)cccc1C(N)=O [LC-44] | Active | – | – | 5.15 | – | – | – | KD = N/A irreversible or not active | –
O=c1[nH]sc2ncccc12 [LC-47] | not active | – | – | < 4.30 | – | 50 (≈ 7610 µg/mL) | – | KD = N/A irreversible or not active | –
Cc1cc(C)c2c(=O)ssc2n1 [LC-50] | Active | – | – | 5.29 | 100 | – | – | – | –
Cc1nc2s[nH]c(=O)c2c(C)c1C [LC-51] | Active | – | – | 5.66 | – | 10 (≈ 1940 µg/mL) | – | – | –
Cc1nc2sn(CN3CCN(C(=O)C4CC4)CC3)c(=O)c2c(C)c1C [LC-52] | Active | – | – | 5.45 | – | 10 (≈ 3600 µg/mL) | – | – | –
Cc1cc(C)c2c(=O)n(CN3CCN(C(=O)C4CC4)CC3)sc2n1 [LC-53] | Active | – | – | 5.38 | – | 25 (≈ 8660 µg/mL) | – | – | –
Cc1nnc2sn(C(C)N3CCC(C(=O)C4CC4)CC3)c(=O)c2c1C (stereo not shown) [LC-59] | Active | – | – | 4.97 | 100 | – | – | – | –
